Measured values reported in patent publication US5482954A, “Signal transduction inhibitor triazole and diazole compounds” (priority 1994, dated 1996).
Like-named read-outs stand apart in the source and are kept apart here.

Tests used:
[1] = test system: RMCE in neutrophils; conditions: Merritt, et al.; cited from earlier work
[2] = test system: RMCE in platelets; conditions: Merritt, et al.; cited from earlier work
[3] = test system: voltage-gated L-type calcium channels in vascular smooth muscle cells; conditions: patch clamp; Merritt, et al.; cited from earlier work
[4] = test system: RMCE in endothelial cells; conditions: Merritt, et al.; cited from earlier work
[5] = test system: CHOm5 cells; experiment: Carbachol-stimulated arachidonic acid release; assay type: cell-based, Chinese hamster; conditions: Table K
Text: This example illustrates the effect of selected compounds on the release of arachidonic acid from carbachol-stimulated CHOm5 cells. Carbachol is a muscarinic agonist which in the muscarinic receptor transfected CHO cells stimulates the activation of phospholipase A2, resulting in arachidonic acid release and metabolism. Downstream metabolites of arachidonic acid, prostaglandins and leukotrienes are also second messengers.
The effect of compound 1 on arachidonic acid release from CHOm5 cells was determined by incubating the cells to isotopic equilibrium with labelled arachidonic acid, then washing the cells twice with 1 mL of serum-free media supplemented with 20 mM HEPES and 0.2% bovine serum albumin (fatty acid free) to trap the unincorporated labelled arachidonic acid, and then simultaneously adding carbachol (100 μM) and increasing concentrations of 1. After 15 min, the reaction was stopped by removing the incubation media which was then centrifuged at 10,000×g to eliminate any nonadherent cells.

[6] = test system: A2058 cells; experiment: Proliferation of A2058 cells (monolayer growth, crystal violet); assay type: cell-based, human; conditions: for activity at 10 µM: Homo sapiens, read-out: GROWTH (% OF CONTROL)
Protocol: For the clonogenic assay, aliquots of 50,000 cells per well (24 well plates) were grown under standard tissue culture conditions in the presence of increasing doses or test compound (0-10 μg/mL) or vehicle control. After 96 hr, the cells were gently washed with PBS, fixed, and stained with 0.5% crystal violet nuclear stain in 20% methanol. Excess stain was removed with tap water and bound stain was eluted with an equal volume solution of 01N sodium citrate (pH 4.2) and absolute ethanol. Optical density (O.D.) of eluted crystal violet stain was determined at 540 nm. The results of dose-dependent inhibition of tumor cell proliferation by compound 1 are shown in FIG. 5, in which the data are expressed as percent of untreated control cell proliferation for each cell type. The degree of inhibition varied with the cell type and was maximal (76%) for the A2058 cell line.
A2058 human melanoma cells were used to test the effect of compounds 1 and 3-25 on cellular proliferation. The cells were cultured in the presence of the test compounds (10 μM) for 96 hr. fixed and stained with crystal violet as described above. Growth inhibition was determined as a percent of control growth (using either DMSO or PEG-400 as the vehicle) for each compound. Each experiment was run a minimum of three times and the average of the results for each compound is provided in Table H and in FIGS. 20A and 20B.

[7] = test system: A2058 cells; experiment: Colony formation (soft agar); assay type: cell-based, human; conditions: for COLONY FORMATION (% OF CONTROL): Table H, soft agar; for Colony Formation (% of Control): Table K
Protocol: Colony formation: Compound 1 was evaluated at three concentrations for inhibition of colony formation in both the A2058 and OVCAR3 cell lines. Colony number was determined in triplicate and compared to the vehicle control run on each 24 well plate to provide a percent. Colonies greater than 60 cells were counted at 100× under phase contrast. […] In a second study, selected compounds were evaluated for their effect on density-independent growth of the A2058 cell line in soft agar. Percent inhibition was determined over triplicate experiments involving three log molar concentrations of the test compound.

[8] = test system: CHOm5 cells; experiment: Carbachol-stimulated 45Ca2+ influx; assay type: cell-based, Chinese hamster; set-up: % Inhibition of 45Ca2+ Influx into CHOm5 Cells: concentration or dose not given beside the values; conditions: Table I; carbachol-stimulated
Protocol: (§1) Calcium influx was determined using two methods. The first method involved the use of ^45 Ca^2+, while the second method utilized a fluorescent intracellular calcium chelator, Fura-2. The method using Fura-2 is semi-quantitative and is preferred for kinetic analysis and screening whereas the ^45 Ca^2+ method is quantitative.
CHOm5 cells in monolayer culture were washed free of serum-containing media and incubated with either carbachol or the calcium ionophore A23187 (from Molecular Probes, Eugene, Oreg., USA) in the presence of ^45 Ca^2+ and defined buffer (E2 medium with 0.1 mM MgCl2 and 1.0 mM CaCl2). After incubation for 5 min, the radioactive buffer was rapidly and repeatedly washed off with media containing LaCl3, a competitor of calcium efflux. The cell monolayer was solubilized and the calcium uptake was determined by scintillation counting.
Stimulated uptake of radiolabelled calcium was measured as described above. The abbreviations CTL and CC are control and carbachol-stimulated calcium influx values. respectively.

[9] = test system: A2058 cells; experiment: Ca2+ influx (receptor-operated); assay type: cell-based, human
Protocol: as §1
Additionally, CHOm5 cells and A2058-1F5 human melanoma cells adherent to glass coverslips, which had been precoated with collagen or poly-L lysine to promote adhesion, were loaded with the fluorescent intracellular calcium chelator, fura-2AM. This chelator penetrates cells where it is hydrolyzed to fura-2 which remains trapped in the cells. Excess fura-2AM is washed off the cells. Cells are studied in serum-free E2 media, containing known amounts of calcium and magnesium. The cells are subjected to treatment with carbachol (10 μM) with or without compounds 1 and 2, and with appropriate vehicle controls (DMSO or PEG-400) in a perifusion apparatus. This ligand is known to stimulate intracellular release of calcium and influx of extracellular calcium. Emitted light is measured at 510 nm after excitation at 340 and 380 nm, with the ratio of fluorescence of fura-2 being directly correlated with intracellular calcium concentrations.
Stimulated uptake of radiolabelled calcium was measured as described above. […]

[10] = test system: signal transduction and tumor growth; experiment: Biological and biochemical assays, summary; assay type: cell-based; conditions: summary of all assays
Text: Compound 1 was inhibitory for the biological and biochemical assays.

[11] = test system: 5R ras-transfected rat embryo fibroblast cell line; experiment: Experimental pulmonary metastasis, tumor cells pretreated in vitro; assay type: in vivo, nude mice; conditions: cells treated overnight, 1-10 μM; 10 d
Protocol: This example illustrates the effect of selected compounds on the development of experimental pulmonary metastases, when the tumor cells are first incubated with the compound in vitro and subsequently injected into the tail vein of nude mice. In this example, both the 5R ras-transfected rat embryo fibroblast cell line and the HT-29 human colon cancer cell line were evaluated.
The 5R ras-transfected rat embryo fibroblast cell line forms confluent pulmonary metastases within 2-3 weeks after inoculation. For the experimental metastasis assay, 5R cells were treated in culture overnight with the test compounds (1-10 μM). After culture, the cells were harvested, washed and injected into the tail vein of six-week old nude mice. After 10 d, the mice were humanely sacrificed and the lungs were removed and fixed in Bouin's solution. The visible pulmonary metastases were counted.

[12] = test system: A2058 human melanoma cells; experiment: AMF-stimulated cell motility; assay type: cell-based; conditions: PT, 0.5 μg/ml for 2 hr
Protocol: (§2) The cell motility assay has been described. See, Stracke et al., Biochem. Biophys. Res. Comm., 146:339-345 (1987). Cells from the A2058 human melanoma line which was maintained in subconfluent culture were harvested with trypsin-EDTA, and were allowed to recover for 1 hr at room temperature. Cells from the 5R H-ras transformed (diploid) rat embryo fibroblast line were harvested with 2 mM EDTA in PBS without divalent cations. Cells were resuspended in serum-free media containing 0.1% BSA. This DMEM/0.1% BSA was used as the control for all subsequent assays. The assays were performed in triplicate using a 48-well chemotaxis chamber with 8μ Nucleopore, type IV collagen-coated filters. The chambers were incubated at 37° C. for 4 hr, stained and placed onto glass slides with the original cell side up so that the cell pellet could be wiped from the surface. Cells that had migrated through the pores were trapped between glass and membrane and could be quantitated by laser densitometry.
(§3) Compound 1 was preincubated with the cells for various periods of time, added at the start of the assay, or added later. Additionally, compound 1 remained present during the motility assay. The cells were assayed for their motile response to AMF. AMF stimulates random and directed locomotion of 5R ras-transfected rat embryo fibroblasts and A2058 human melanoma cells. […] Cell viability determined by trypan blue exclusion averaged greater than 96%. Cells exposed to various concentrations of compound 1 were tested for their response to AMF vs. control. Percent stimulated motility (in densitometer units) is defined as: […]
(§4) (AMF stimulated-control)Compound 1 /(AMF stimulated-control)untreated

[13] = test system: 5R ras-transfected rat embryo fibroblasts; experiment: AMF-stimulated cell motility; assay type: cell-based; conditions: PT, 0.5 μg/ml for 2 hr
Protocol: as §2, §3, §4

Compound | activity at 10 µM ([6]; A2058, Table H, 10 μM, 96 hr) | COLONY FORMATION (% OF CONTROL) [7] | further results
COc1ccc(CCCOC(Cn2ccnc2)c2ccc(OC)cc2)cc1 (stereo not shown) [Compound 2] | – | – | inhibition of RMCE [1]: inhibits RMCE; inhibition of RMCE [2]: inhibits RMCE; block of voltage-gated L-type calcium channels [3]: blocks; inhibition of RMCE [4]: inhibits RMCE
NC(=O)c1nnn(Cc2cc(Cl)c(C(=O)c3ccc(Cl)cc3)c(Cl)c2)c1NC=O [Compound 3] | 31.5 ± 7% | 10.2 ± 0.5 % OF CONTROL | Arachidonic Acid Release (% of Control) [5]: 13.1 ± 3 % of Control; dose dependent inhibition of proliferation ([6]; FIG. 20A, monolayer growth): Dose dependent inhibition of proliferation; Colony Formation (% of Control) [7]: 10.2 ± 0.5 % of Control; % Inhibition of 45Ca2+ Influx into CHOm5 Cells [8]: 60%
CC(=O)Nc1c(C(N)=O)nnn1Cc1cc(Cl)c(C(=O)c2ccc(Cl)cc2)c(Cl)c1 [Compound 4] | 53.7 ± 15% | 10.3 ± 0.4 % OF CONTROL | Arachidonic Acid Release (% of Control) [5]: 73.8 ± 5.9 % of Control; Colony Formation (% of Control) [7]: 10.3 ± 0.4 % of Control; % Inhibition of 45Ca2+ Influx into CHOm5 Cells [8]: 41%
NC(=O)c1nnn(Cc2cc(Cl)c(C(=O)c3ccc(Cl)cc3)c(Cl)c2)c1NC(=O)c1ccccc1 [Compound 5] | 39 ± 2% | 9.97 ± 1 % OF CONTROL | Arachidonic Acid Release (% of Control) [5]: 49.2 ± 12 % of Control; Colony Formation (% of Control) [7]: 9.97 ± 1 % of Control; % Inhibition of 45Ca2+ Influx into CHOm5 Cells [8]: 61%
Nc1c(C(=O)O)nnn1Cc1cc(Cl)c(C(=O)c2ccc(Cl)cc2)c(Cl)c1 [Compound 6] | 45.3 ± 11% | 9.00 ± 1 % OF CONTROL | Arachidonic Acid Release (% of Control) [5]: 49.6 ± 5 % of Control; Colony Formation (% of Control) [7]: 9.00 ± 1 % of Control; % Inhibition of 45Ca2+ Influx into CHOm5 Cells [8]: 38%
O=C(c1ccc(Cl)cc1)c1c(Cl)cc(Cn2ccnc2)cc1Cl [Compound 7] | 66.5 ± 9% | – | Arachidonic Acid Release (% of Control) [5]: 92.6 ± 7 % of Control
NC(=O)c1nnn(Cc2ccc(C(=O)c3ccccc3)cc2)c1N [Compound 8] | 92.7 ± 9% | 93.4 ± 3 % OF CONTROL | inhibition of stimulated changes in intracellular calcium [9]: failed to inhibit; inhibition in the biological and biochemical assays [10]: did not inhibit any of the test assays; Arachidonic Acid Release (% of Control) [5]: 100 ± 15 % of Control; Colony Formation (% of Control) [7]: 93.4 ± 3 % of Control; inhibition of pulmonary colonization [11]: 14%; % Inhibition of 45Ca2+ Influx into CHOm5 Cells [8]: 0%
NC(=O)c1nc[nH]c1N [Compound 9] | 97 ± 3% | – | –
O=C(O)c1nn[nH]c1C(=O)O [Compound 10] | 92.2 ± 4% | 100 ± 3 % OF CONTROL | –
NC(=O)c1nnn(Cc2cccc(F)c2)c1N [Compound 11] | 89 ± 3% | – | –
NC(=O)c1nnn(Cc2cccc(Cl)c2)c1N [Compound 12] | 85 ± 2% | – | –
NC(=O)c1nnn(Cc2cccc(Br)c2)c1N [Compound 13] | 85.5 ± 13% | – | –
NC(=O)c1nnn(Cc2cccc(I)c2)c1N [Compound 14] | 89 ± 6% | – | –
NC(=O)c1nnn(Cc2cc(Cl)cc(Cl)c2)c1N [Compound 15] | – | – | % Inhibition of 45Ca2+ Influx into CHOm5 Cells [8]: 0%
NC(=O)c1nnn(Cc2cc(F)cc(F)c2)c1N [Compound 16] | 111 ± 8% | – | –
O=C(c1ccccc1)c1ccccc1 [Compound 17] | – | 95.9 ± 3 % OF CONTROL | activity at 10 µM ([6]; A2058, 96 h): 98.5 ± 5%
O=C(c1ccccc1)c1ccc(F)cc1 [Compound 18] | 94 ± 2% | 93.0 ± 3.7 % OF CONTROL | –
O=C(c1ccccc1)c1ccc(Cl)cc1 [Compound 19] | 110 ± 12% | 94.3 ± 3.1 % OF CONTROL | –
O=C(c1ccccc1)c1ccc(Br)cc1 [Compound 20] | 97 ± 24% | 95.0 ± 1.4 % OF CONTROL | –
O=C(c1ccccc1)c1ccccc1Cl [Compound 21] | 123 ± 5% | 100 ± 5 % OF CONTROL | –
O=C(c1ccc(F)cc1)c1ccccc1Cl [Compound 23] | 101 ± 0.5% | 97.8 ± 5 % OF CONTROL | –
O=C(c1ccc(F)cc1)c1ccccc1F [Compound 24] | 82 ± 7% | – | –
O=C(c1ccccc1O)c1ccccc1O [Compound 25] | 98 ± 7% | 95.3 ± 2 % OF CONTROL | –
O=C(c1ccc(Cl)cc1)c1c(Cl)cc(CO)cc1Cl [Compound 26] | 101 ± 11% | 100.3 ± 1.2 % OF CONTROL | % Inhibition of 45Ca2+ Influx into CHOm5 Cells [8]: ~ 10%
pertussis toxin [reference compound] | – | – | inhibition of AMF-stimulated motility by pertussis toxin [12]: markedly inhibited; inhibition of AMF-stimulated motility by pertussis toxin [13]: markedly inhibited
